From patent US6384066B1, “Sulphonyltriazol derivatives and their use for combating micro-organisms” (priority 1998, dated 2002)

What was measured:
[1] = test system: Phytophthora infestans; assay type: in vivo; details: tomato plants, protective spray, application rate 50 g/ha, evaluation 3 days after inoculation; 100% = no infection

Structure (SMILES)	melting point [°C]	Efficacy in % [1] [%]
Cc1noc(C)c1S(=O)(=O)n1nc(Cl)nc1-c1ccccc1 [Example 1]	70 to 74	–
Cc1noc(C)c1S(=O)(=O)n1nc(Cl)nc1-c1ccccc1 [drawing 94]	–	97
